IC50 data for 11 compounds are collected here from patent US20220315554A1, “COMPOUNDS COMPRISING A […] LIGAND AND USE THEREOF” (priority 2019, published 2022).

By IC50 is commonly meant the concentration needed to halve the response being measured.

Assay [1] concerns the target T1, FAP-expressing human WI-38 fibroblasts (Homo sapiens, UniProt Q12884).
T1 construct: FAP-expressing human WI-38 fibroblasts (ECACC) were cultured in EMEM; host or cells: WI-38 human fibroblasts
T1 sequence (Q12884 1-760): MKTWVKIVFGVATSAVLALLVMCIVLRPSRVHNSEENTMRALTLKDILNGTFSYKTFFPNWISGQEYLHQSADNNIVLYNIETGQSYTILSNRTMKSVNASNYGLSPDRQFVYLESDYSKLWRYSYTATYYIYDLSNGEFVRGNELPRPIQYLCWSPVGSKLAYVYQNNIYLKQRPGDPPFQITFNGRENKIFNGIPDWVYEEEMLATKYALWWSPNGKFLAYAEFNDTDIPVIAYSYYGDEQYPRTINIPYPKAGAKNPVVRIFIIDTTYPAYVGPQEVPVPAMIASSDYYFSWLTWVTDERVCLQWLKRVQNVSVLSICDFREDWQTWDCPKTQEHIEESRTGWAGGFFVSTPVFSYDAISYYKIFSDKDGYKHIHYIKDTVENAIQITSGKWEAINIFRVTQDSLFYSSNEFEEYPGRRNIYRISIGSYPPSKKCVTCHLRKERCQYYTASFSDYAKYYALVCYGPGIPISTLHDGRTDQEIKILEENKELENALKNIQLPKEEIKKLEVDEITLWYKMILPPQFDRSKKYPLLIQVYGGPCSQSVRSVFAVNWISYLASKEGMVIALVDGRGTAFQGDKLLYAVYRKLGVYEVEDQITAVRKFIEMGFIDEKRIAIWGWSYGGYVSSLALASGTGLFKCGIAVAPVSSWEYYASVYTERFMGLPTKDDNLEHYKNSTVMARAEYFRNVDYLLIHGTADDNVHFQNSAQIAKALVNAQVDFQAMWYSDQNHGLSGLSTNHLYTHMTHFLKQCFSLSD
The experiment in a line: Competitive FACS binding assay. To be noted: pIC50 Category (FACS), competition with 3 nM Cy5-labeled compound, WI-38 fibroblasts, 4° C., 1 hour. On the procedure: Cells were analyzed in an Attune NxT flow cytometer. […]
In general terms: A flow cytometer gives signals particle by particle.

A further assay addresses T2, Human recombinant FAP (Homo sapiens, UniProt Q12884).
T2 sequence (Q12884 1-760): T1 sequence (Q12884 1-760)
As to the kind of experiment: FRET-based FAP protease activity assay. The format is biochemical. To be noted: pIC50 Category (Activity), recombinant human FAP, FRET substrate, 37° C. Details: purchased R&D systems 3715-SE.

Numbered stars: 1 amine (or outer) side, 2 acyl side, 3 side chain; on linkers, the order of the positions; unused ones are H or OH. Bridge positions count the residues as written; N and C are the ends. Square brackets hold non-standard residues; d marks the D form. Peptide text beside a SMILES is read from it. * marks the point of attachment. X2 = O=C(O)CN1CCN(CC(=O)O)CCN(CC(=O)NCCCOCCOCCOCCCN*)CCN(CC(=O)O)CC1; DOTA = O=C(O)CN1CCN(CC(=O)O)CCN(CC(=O)*)CCN(CC(=O)O)CC1; mXylylene = c1cc(C[*:1])cc(C[*:2])c1; Suc = O=C(CCC(=O)[*:2])[*:1]; Nle = CCCC[C@H](N)C(=O)O

As for `CCCC[C@H](NC(=O)CN1CCN(CC(=O)O)CCN(CC(=O)O)CCN(CC(=O)O)CC1)C(=O)N[C@H]1CSCc2cccc(c2)CSC[C@@H](C(=O)N[C@@H](CC(=O)O)C(=O)N[C@@H](Cc2c[nH]cn2)C(=O)N[C@@H](Cc2ccccc2)C(=O)N[C@@H](CCCNC(=N)N)C(=O)N[C@@H](CC(=O)O)C(N)=O)NC(=O)[C@H](Cc2ccccc2)NC(=O)[C@H](CCC(=O)O)NC(=O)[C@H]([C@@H](C)O)NC(=O)[C@@H]2CCCN2C(=O)[C@@H]2CCCN2C1=O` [3BP-3088, DOTA-Nle-[Cys(3MeBn)-Pro-Pro-Thr-Glu-Phe-Cys]-Asp-His-Phe-Arg-Asp-NH2] ({DOTA}-[Nle]CPPTEFCDHFRD-NH2; linker 2-8 via mXylylene), the IC50 (in assay [1]; at Human recombinant FAP) was 100 to 794 nM throughout.
For the compound `CSCC[C@H](NC(=O)CN1CCN(CC(=O)O)CCN(CC(=O)O)CCN(CC(=O)O)CC1)C(=O)N[C@H]1CSCc2cccc(c2)CSC[C@@H](C(=O)N[C@@H](CC(=O)O)C(=O)N[C@@H](Cc2c[nH]cn2)C(=O)N[C@@H](Cc2ccccc2)C(=O)N[C@@H](CCCNC(=N)N)C(=O)N[C@@H](CC(=O)O)C(N)=O)NC(=O)[C@H](Cc2ccccc2)NC(=O)[C@H](CCC(=O)O)NC(=O)[C@H]([C@@H](C)O)NC(=O)[C@@H]2CCCN2C(=O)[C@@H]2CCCN2C1=O` [3BP-3170, DOTA-Met-[Cys(3MeBn)-Pro-Pro-Thr-Glu-Phe-Cys]-Asp-His-Phe-Arg-Asp-NH2] ({DOTA}-MCPPTEFCDHFRD-NH2; linker 2-8 via mXylylene), the IC50 (in assay [1]; on Human recombinant FAP) was 100 to 794 nM in each case.
With `C[C@@H](O)[C@@H]1NC(=O)[C@@H]2CCCN2C(=O)[C@@H]2CCCN2C(=O)[C@@H](NC(=O)[C@H](Cc2ccccc2)NC(=O)CCC(=O)NCCCOCCOCCOCCCNC(=O)CN2CCN(CC(=O)O)CCN(CC(=O)O)CCN(CC(=O)O)CC2)CSCc2cccc(c2)CSC[C@@H](C(=O)N[C@@H](CC(=O)O)C(=O)N[C@@H](Cc2c[nH]cn2)C(=O)N[C@@H](Cc2ccccc2)C(=O)N[C@@H](CCCNC(=N)N)C(=O)N[C@@H](CC(=O)O)C(N)=O)NC(=O)[C@H](Cc2ccccc2)NC(=O)[C@H](CCC(=O)O)NC1=O` [3BP-3171, DOTA-Ttds-Phe-[Cys(3MeBn)-Pro-Pro-Thr-Glu-Phe-Cys]-Asp-His-Phe-Arg-Asp-NH2] ({X2-Suc}-FCPPTEFCDHFRD-NH2; linker 2-8 via mXylylene), the IC50 (in assay [1]; on Human recombinant FAP) was 10 to 79.4 nM throughout.
Regarding `CC(C)C[C@H](NC(=O)CCC(=O)NCCCOCCOCCOCCOCCCNC(=O)CN1CCN(CC(=O)O)CCN(CC(=O)O)CCN(CC(=O)O)CC1)C(=O)N[C@H]1CSCc2cccc(c2)CSC[C@@H](C(=O)N[C@@H](CC(=O)O)C(=O)N[C@@H](Cc2c[nH]cn2)C(=O)N[C@@H](Cc2ccccc2)C(=O)N[C@@H](CCCNC(=N)N)C(=O)N[C@@H](CC(=O)O)C(N)=O)NC(=O)[C@H](Cc2ccccc2)NC(=O)[C@H](CCC(=O)O)NC(=O)[C@H]2NC(=O)[C@@H]3C(CCN3C(=O)[C@@H]3CCCN3C1=O)[C@H]2O` [3BP-3172, DOTA-Ttds-Leu-[Cys(3MeBn)-Pro-Pro-Thr-Glu-Phe-Cys]-Asp-His-Phe-Arg-Asp-NH2], the concentration for half-maximal inhibition (IC50) (in assay [1]; on Human recombinant FAP) was less than 10 nM each time.
With `C[C@@H](O)[C@@H]1NC(=O)[C@@H]2CCCN2C(=O)[C@@H]2CCCN2C(=O)[C@@H](NC(=O)[C@H](CCC(=O)O)NC(=O)CCC(=O)NCCCOCCOCCOCCCNC(=O)CN2CCN(CC(=O)O)CCN(CC(=O)O)CCN(CC(=O)O)CC2)CSCc2cccc(c2)CSC[C@@H](C(=O)N[C@@H](CC(=O)O)C(=O)N[C@@H](Cc2c[nH]cn2)C(=O)N[C@@H](Cc2ccccc2)C(=O)N[C@@H](CCCNC(=N)N)C(=O)N[C@@H](CC(=O)O)C(N)=O)NC(=O)[C@H](Cc2ccccc2)NC(=O)[C@H](CCC(=O)O)NC1=O` [3BP-3173, DOTA-Ttds-Glu-[Cys(3MeBn)-Pro-Pro-Thr-Glu-Phe-Cys]-Asp-His-Phe-Arg-Asp-NH2] ({X2-Suc}-ECPPTEFCDHFRD-NH2; linker 2-8 via mXylylene), the IC50 (in assay [1]; on Human recombinant FAP) was 10 to 79.4 nM each time.
In the case of `C[C@@H](O)[C@@H]1NC(=O)[C@@H]2CCCN2C(=O)[C@@H]2CCCN2C(=O)[C@@H](NC(=O)CN2CCN(CC(=O)O)CCN(CC(=O)O)CCN(CC(=O)O)CC2)CSCc2cccc(c2)CSC[C@@H](C(=O)N[C@@H](CC(=O)O)C(=O)N[C@@H](Cc2c[nH]cn2)C(=O)N[C@@H](Cc2ccccc2)C(=O)N[C@@H](CCCNC(=N)N)C(=O)N[C@@H](CC(=O)O)C(N)=O)NC(=O)[C@H](Cc2ccccc2)NC(=O)[C@H](CCC(=O)O)NC1=O` [3BP-3174, DOTA-[Cys(3MeBn)-Pro-Pro-Thr-Glu-Phe-Cys]-Asp-His-Phe-Arg-Asp-NH2] ({DOTA}-CPPTEFCDHFRD-NH2; linker 1-7 via mXylylene), the IC50 (in assay [1]; at Human recombinant FAP) was 100 to 794 nM throughout.
Turning to `CSCC[C@H](NC(C)=O)C(=O)N[C@H]1CSCc2cccc(c2)CSC[C@@H](C(=O)N[C@@H](CC(=O)O)C(=O)N[C@@H](Cc2c[nH]cn2)C(=O)N[C@@H](Cc2ccccc2)C(=O)N[C@@H](CCCNC(=N)N)C(=O)N[C@@H](CC(=O)O)C(N)=O)NC(=O)[C@H](Cc2ccccc2)NC(=O)[C@H](CCC(=O)O)NC(=O)[C@H]([C@@H](C)O)NC(=O)[C@@H]2CCCN2C(=O)[C@H]2CCCN2C1=O` [3BP-3176, Ac-Met-[Cys(3MeBn)-pro-Pro-Thr-Glu-Phe-Cys]-Asp-His-Phe-Arg-Asp-NH2] (Ac-MC[dP]PTEFCDHFRD-NH2; linker 2-8 via mXylylene), the half-maximal inhibitory concentration (IC50) (in assay [1]; at Human recombinant FAP) was 100 to 794 nM throughout.
`CSCC[C@H](NC(C)=O)C(=O)N[C@H]1CSCc2cccc(c2)CSC[C@@H](C(=O)N[C@@H](CC(=O)O)C(=O)N[C@@H](Cc2c[nH]cn2)C(=O)N[C@@H](Cc2ccccc2)C(=O)N[C@@H](CCCNC(=N)N)C(=O)N[C@@H](CC(=O)O)C(N)=O)NC(=O)[C@H](Cc2ccccc2)NC(=O)[C@H](CCC(=O)O)NC(=O)[C@@H]([C@H](C)O)NC(=O)[C@@H]2CCCN2C(=O)[C@@H]2CCCN2C1=O` [3BP-3178, Ac-Met-[Cys(3MeBn)-Pro-Pro-thr-Glu-Phe-Cys]-Asp-His-Phe-Arg-Asp-NH2] (Ac-MCPP[dT]EFCDHFRD-NH2; linker 2-8 via mXylylene): the concentration for half-maximal inhibition (IC50) (in assay [1]; at Human recombinant FAP) was 10 to 79.4 nM throughout.
In the case of `CSCC[C@H](NC(C)=O)C(=O)N[C@H]1CSCc2cccc(c2)CSC[C@@H](C(=O)N[C@@H](CC(=O)O)C(=O)N[C@@H](Cc2c[nH]cn2)C(=O)N[C@@H](Cc2ccccc2)C(=O)N[C@@H](CCCNC(=N)N)C(=O)N[C@@H](CC(=O)O)C(N)=O)NC(=O)[C@H](Cc2ccccc2)NC(=O)[C@@H](CCC(=O)O)NC(=O)[C@H]([C@@H](C)O)NC(=O)[C@@H]2CCCN2C(=O)[C@@H]2CCCN2C1=O` [3BP-3179, Ac-Met-[Cys(3MeBn)-Pro-Pro-Thr-glu-Phe-Cys]-Asp-His-Phe-Arg-Asp-NH2] (Ac-MCPPT[dE]FCDHFRD-NH2; linker 2-8 via mXylylene), the IC50 in assay [1] is 10 to 79.4 nM; at Human recombinant FAP, 100 to 794 nM.
Consider `CSCC[C@H](NC(C)=O)C(=O)N[C@H]1CSCc2cccc(c2)CSC[C@@H](C(=O)N[C@@H](CC(=O)O)C(=O)N[C@@H](Cc2c[nH]cn2)C(=O)N[C@@H](Cc2ccccc2)C(=O)N[C@@H](CCCNC(=N)N)C(=O)N[C@@H](CC(=O)O)C(N)=O)NC(=O)[C@@H](Cc2ccccc2)NC(=O)[C@H](CCC(=O)O)NC(=O)[C@H]([C@@H](C)O)NC(=O)[C@@H]2CCCN2C(=O)[C@@H]2CCCN2C1=O` [3BP-3180, Ac-Met-[Cys(3MeBn)-Pro-Pro-Thr-Glu-phe-Cys]-Asp-His-Phe-Arg-Asp-NH2] (Ac-MCPPTE[dF]CDHFRD-NH2; linker 2-8 via mXylylene), for which the IC50 (in assay [1]; on Human recombinant FAP) was 100 to 794 nM in each case.
As to `CSCC[C@H](NC(C)=O)C(=O)N[C@H]1CSCc2cccc(c2)CSC[C@H](C(=O)N[C@@H](CC(=O)O)C(=O)N[C@@H](Cc2c[nH]cn2)C(=O)N[C@@H](Cc2ccccc2)C(=O)N[C@@H](CCCNC(=N)N)C(=O)N[C@@H](CC(=O)O)C(N)=O)NC(=O)[C@H](Cc2ccccc2)NC(=O)[C@H](CCC(=O)O)NC(=O)[C@H]([C@@H](C)O)NC(=O)[C@@H]2CCCN2C(=O)[C@@H]2CCCN2C1=O` [3BP-3182, Ac-Met-[Cys(3MeBn)-Pro-Pro-Thr-Glu-Phe-cys]-Asp-His-Phe-Arg-Asp-NH2] (Ac-MCPPTEF[dC]DHFRD-NH2; linker 2-8 via mXylylene), the IC50 (in assay [1]; at Human recombinant FAP) was 10 to 79.4 nM throughout.
